Experimental data reported in US5612341A, “Brominated hexahydroxybiphenyl derivatives” (Biotech Research Laboratories, priority 1995, dated 1997).
In brackets after ≈: the same amount, converted by molar mass. Read-outs that look alike come from different tables or passages of the source.

Assays:
HIV-1 (IIIB isolate) [1] = experiment: microbe, parasite or virus in culture; type: cell-based; conditions: for therapeutic index (TI) / Therapeutic Index: 5760 min
Description: (§1) The H9 T cell line was maintained in continuous culture with complete medium (RPMI and 10% fetal calf serum) at 5% CO2 and 37° C. and was used in experiments only when in log phase of growth. The cells were incubated with HIV-1 (IIIB isolate, TCID50 10^4 IU/mL, at a multiplicity of infection of 0.1-0.01 IU/cell) for 1 hour at 37° C. and 5% CO2. The cells then were washed thoroughly to remove unabsorbed virions and resuspended at 4×10^5 cells/mL in complete medium. Aliquots (1 mL) were placed in wells of 24-well culture plates containing an equal volume of test compound (diluted in the culture medium). After a four day incubation at 37° C., cell density of uninfected cultures was determined by counting cells in a Coulter counter to assess toxicity of the test compound. A p24 antigen ELISA assay was used to determine the level of virus released in the medium of the HIV-infected cultures. The p24 antigen assay uses an HIV-1 anti-p24 specific monoclonal antibody as the capture antibody coated on 96 well plates. Following a sample incubation period, rabbit serum containing antibodies for HIV-1 p24 is used to tag any p24 "captured" onto the microtiter well surface. […] The cut-off for the p24 ELISA assay is 12.5 pg/mL. P24 in the culture medium was quantitated against a standard curve containing known amounts of p24. The effective (EC50) and inhibitory concentrations (for anti-HIV activity and cytotoxicity, respectively) were determined.

[2] = target: T1, HIV reverse transcriptase associated RNase H (HIV-1 M:B_HXB2R, UniProt P04585); experiment: HIV reverse transcriptase associated RNase H activity; type: biochemical
T1 construct: cut from Gag-Pol polyprotein

[3] = target: T2, HIV-1 reverse transcriptase (Human immunodeficiency virus type 1 group M subtype B, UniProt P04585); experiment: HIV-1 reverse transcriptase, RNA-dependent DNA polymerase associated activity; type: biochemical; design: HIV-1 reverse transcriptase was purified; made in house; host or cells: Escherichia coli JM 109 containing pKRT 2 (plasmid provided by W. C. Summers, Yale University); conditions: for HIV-1 reverse transcriptase inhibitory activity: template-primer dependent, result in words; for IC50: mean ± standard deviation of three
Description: (§2) HIV-1 reverse transcriptase was purified using Escherichia coli JM 109 containing pKRT 2 kindly provided by W. C. Summers (Yale University).
(§3) Enzyme Assay. All reactions were developed in a total volume of 50 μl containing 50 mMTris HCl pH 7.8, 2 mM MgCl2, 100 μg/mL nuclease-free BSA, 1 mM dithiothreitol, 0.5 O.D.260 unit/mL of template-primer, and 330 nM of [^3 H]dNTP according to Cheng et al.

H9 T cell line = experiment: Toxicity to uninfected H9 cells (cell count); type: cell-based
Description: as §1

[4] = test system: chronically HIV-1 infected T cell line, ACH-2; experiment: Virus expression in chronically HIV-1 infected T cell line ACH-2 (p24 ELISA); type: cell-based; conditions: 72 hours; for induction of virus expression: cultured alone; for alteration in the level of virus expression: in presence of PMA
Description: Data obtained by using chronically HIV-1 infected cell lines that are cultured with a test drug can give a sense of how these compounds may function in vivo if given to a latently HIV- infected individual. Therefore, compounds 4 and 5 were separately added for 72 hours to the chronically HIV-1 infected T cell line, ACH-2, and to the chronically HIV-1 infected promonocytic cell line, U1.
(§4) HIV-1 chronically infected T cell line, ACH-2, ^15 and HIV-1 chronically infected promonocytic cell line, U1 ^16 were continuously maintained in RPMI1640 with 10% fetal calf serum (FCS). For experiments, the cell lines were only used in log-phase of growth. Cells (1×10^6 cells/well) and either various concentrations of 4,5, AZT or media alone were added to 24-well plates in the presence or absence of PMA (10^-8 M). After 72 hours at 37° C. and 5% CO2, an aliquot of the cell-free supernatants was collected and analyzed for p24 antigen by ELISA.

[5] = target: T2, HIV-1 reverse transcriptase; experiment: HIV-1 reverse transcriptase, DNA-dependent DNA polymerase associated activity; type: biochemical; design: HIV-1 reverse transcriptase was purified; made in house; host or cells: Escherichia coli JM 109 containing pKRT 2 (plasmid provided by W. C. Summers, Yale University); conditions: for inhibitory effect against RT-associated DNA polymerase activity: under certain conditions
Description: as §2, §3

[6] = test system: chronically HIV-1 infected promonocytic cell line, U1; experiment: Virus expression in chronically HIV-1 infected promonocytic U1 cells (p24 ELISA); type: cell-based; conditions: for induction of virus expression / alteration in the level of virus expression: 72 hours; for induction of virus expression: cultured alone; for alteration in the level of virus expression: in presence of PMA
Description: Therefore, compounds 4 and 5 were separately added for 72 hours to the chronically HIV-1 infected T cell line, ACH-2, and to the chronically HIV-1 infected promonocytic cell line, U1.
as §4

HIV-1 (IIIB isolate) [7] = conditions: cited from earlier work
[8] = target: T2, HIV-1 reverse transcriptase; conditions: more with Poly(rC)-olig(dG) than with Poly(rA)-olig(dT); cited from earlier work
[9] = Human immunodeficiency virus 1, H9, text, acutely infected H9 cells, read-out: EC50 (anti-HIV activity)
[10] = Human immunodeficiency virus 1, Lymphocyte, Table I, acutely infected H9 lymphocytes, read-out: EC50
[11] = Human immunodeficiency virus 1, Lymphocyte, Table IA, acutely infected H9 lymphocytes, read-out: EC50
[12] = Poly(rA)-poly(dT) as substrate, or Mg^+2 as divalent cation
[13] = Poly(rG)-poly(dC) as substrate, Mn^+2 (0.4 mM)
[14] = template-primer poly(rA)-olig(dT)10
[15] = template-primer poly(rC)-olig(dG)12-18
[16] = Homo sapiens, H9, Table I, cytotoxicity, uninfected H9 cells, read-out: IC50
[17] = Poly(dA)-olig(dT) as template primer
[18] = Table II, template-primer printed poly(rA)-olig(dT)^10, mean ± standard deviation of three

SMILES | therapeutic index (TI) (HIV-1 (IIIB isolate) [1]) | EC50 (HIV-1 (IIIB isolate) [1]; [9]) | EC50 (HIV-1 (IIIB isolate) [1]; [10]) | EC50 (HIV-1 (IIIB isolate) [1]; [11]) | Therapeutic Index (HIV-1 (IIIB isolate) [1]; Table I, IC50/EC50) | Therapeutic Index (HIV-1 (IIIB isolate) [1]; Table IA, ratio IC50/EC50) | inhibition of HIV RT associated RNase H activity [2, 12] | inhibition of HIV RT associated RNase H activity [2, 13] | inhibition of HIV RT associated RNase H activity ([2]; under certain conditions) | HIV-1 reverse transcriptase inhibitory activity [3] | IC50 [3, 14] | IC50 [3, 15] | IC50 (H9 T cell line; [16]) | induction of virus expression [4] | alteration in the level of virus expression [4] | IC50 [5, 17] | IC50 [5, 18] | inhibitory effect against RT-associated DNA polymerase activity [5] | induction of virus expression [6] | alteration in the level of virus expression [6] | further results
COC(=O)c1cc(OC)c2c(c1-c1c3c(c(OC)c(Br)c1C(=O)OC)OCO3)OCO2 [Compound 4, 3-Bromo-4,4'-dimethoxy-5,6,5',6'-bimethylenedioxy-2,2'-dimethoxycarbonyl biphenyl] | 190 | 0.52 µg/mL (≈ 1.05 µM) | 0.52 µg/mL (≈ 1.05 µM) | 0.52 µg/mL (≈ 1.05 µM) | > 190 | 190 | no inhibition | almost equal potency | Potent inhibitory effects | template-primer HIV-1 reverse transcriptase inhibitory activity | 4500 ± 1000 nM | 2200 ± 600 nM | > 100 µg/mL | no increase in the induction of virus expression | no alteration in the level of virus expression | 56 nM | 56 ± 3 nM | Potent inhibitory effects | no increase in the induction of virus expression | no alteration in the level of virus expression | IC50 (H9 T cell line; T-cell, Table IA, concentration that causes a 50% reduction in total cell number): 100 µg/mL (≈ 201 µM); p24 ([6]; +Media, 0.0064 μg/mL): 7 pg/mL; p24 ([6]; +Media, 0.032 μg/mL): 10 pg/mL; p24 ([6]; +Media, 0.16 μg/mL): 12 pg/mL; p24 ([6]; +Media, 0.8 μg/mL): 11 pg/mL; p24 ([6]; +Media, 4 μg/mL): 11 pg/mL; p24 ([6]; +Media, 20 μg/mL): 22 pg/mL; p24 ([6]; +PMA, 0.0064 μg/mL): 8,314 pg/mL; p24 ([6]; +PMA, 0.032 μg/mL): 7,200 pg/mL; p24 ([6]; +PMA, 0.16 μg/mL): 7,616 pg/mL; p24 ([6]; +PMA, 0.8 μg/mL): 8,774 pg/mL; p24 ([6]; +PMA, 4 μg/mL): 13,376 pg/mL; p24 ([6]; +PMA, 20 μg/mL): 10,746 pg/mL
COC(=O)c1c(Br)c(OC)c2c(c1-c1c3c(c(OC)c(Br)c1C(=O)OC)OCO3)OCO2 [Compound 5, 3,3'-Dibromo-4,4'-dimethoxy-5,6,5'6'-bimethylenedioxy-2,2'-dimethoxycarbonyl biphenyl] | > 480 | 0.23 µg/mL (≈ 0.399 µM) | 0.23 µg/mL (≈ 0.399 µM) | 0.23 µg/mL (≈ 0.399 µM) | > 480 | > 480 | no inhibition | almost equal potency | Potent inhibitory effects | template-primer HIV-1 reverse transcriptase inhibitory activity | 1900 ± 900 nM | 11000 ± 500 nM | > 100 µg/mL | no increase in the induction of virus expression | no alteration in the level of virus expression | 48 nM | 48 ± 4 nM | Potent inhibitory effects | no increase in the induction of virus expression | no alteration in the level of virus expression | IC50 (H9 T cell line; T-cell, Table IA, concentration that causes a 50% reduction in total cell number, read-out: IC50): > 100 µg/mL; p24 ([6]; +Media, 0.0064 μg/mL): 17 pg/mL; p24 ([6]; +Media, 0.032 μg/mL): 15 pg/mL; p24 ([6]; +Media, 0.16 μg/mL): 13 pg/mL; p24 ([6]; +Media, 0.8 μg/mL): 14 pg/mL; p24 ([6]; +Media, 4 μg/mL): 16 pg/mL; p24 ([6]; +Media, 20 μg/mL): 15 pg/mL; p24 ([6]; +PMA, 0.0064 μg/mL): 7,590 pg/mL; p24 ([6]; +PMA, 0.032 μg/mL): 8,320 pg/mL; p24 ([6]; +PMA, 0.16 μg/mL): 9,850 pg/mL; p24 ([6]; +PMA, 0.8 μg/mL): 11,482 pg/mL; p24 ([6]; +PMA, 4 μg/mL): 10,598 pg/mL; p24 ([6]; +PMA, 20 μg/mL): 10,131 pg/mL
COc1c(OCc2ccccc2)c(OCc2ccccc2)cc(CO)c1-c1c(CO)cc(OCc2ccccc2)c(OCc2ccccc2)c1OC [Compound 2, 4,4',5,5'-tetrakis(benzyloxy)-6,6'-dimethoxy-2,2'-dihydroxymethyl biphenyl] | – | – | – | – | – | – | – | – | – | – | – | – | – | – | – | – | – | – | – | – | anti-HIV activity (HIV-1 (IIIB isolate) [7]; parent compound, comparable to that of DDB): does possess anti-HIV activity
COC(=O)c1cc(OC)c2c(c1-c1c(C(=O)OC)cc(OC)c3c1OCO3)OCO2 [Compound 3, 4,4'-dimethoxy-5,6,5'6'-dimethylenedioxy-2,2'-dimethoxycarbonyl biphenyl, reference compound] | – | – | – | – | > 20 | > 20 | – | – | – | – | – | – | – | – | – | – | – | – | – | – | EC50 (HIV-1 (IIIB isolate) [1]; Human immunodeficiency virus 1, IIIB, Lymphocyte): 5 µg/mL (≈ 12 µM); TI (HIV-1 (IIIB isolate) [7]; background section): > 20; IC50 (H9 T cell line; Homo sapiens, H9): > 100 µg/mL; IC50 (H9 T cell line; T-cell): > 100 µg/mL
Cc1ccnc2c1NC(=O)c1cccnc1N2C1CC1 [Nevarapine] | – | – | – | – | – | – | – | – | – | – | – | – | – | – | – | – | – | – | – | – | inhibitory activity using Poly(rC)-olig(dG) versus Poly(rA)-olig(dT) [8]: more inhibitory activity
